Data on twelve compounds can be found in patent publication US20100099692A1, “HARMFUL ORGANISM CONTROL COMPOSITION” (priority 2007, published 2010).

For orientation: pest or weed control means how far the test organism was held down.

The first assay relates to Bemisia tabaci imagoes. As to the kind of experiment: Test Example 2: cabbage leaf disc immersion test on Bemisia tabaci imagoes, controlling value after 2 days. As to conditions: compound I-(138) alone 800 ppm, cabbage leaf disc immersed 30 seconds. The assay is classed as in vivo.
As to `COC(=O)NN(C)C(=O)c1cc(C#N)cc(C)c1NC(=O)c1cc(Br)nn1-c1ncccc1Cl` [compound I-(138)], the “Pest controlling value (%)” value is recorded as 33%.

The assay is the same for the next values; noted with them: compound X alone 2000 ppm, cabbage leaf disc immersed 30 seconds.
Regarding `CC#CCOc1ncnc(N2CC(C)CC(C)C2)c1F` (stereo not shown) [compound X, 4-(2-butynyloxy)-5-fluoro-6-(3,5-dimethylpiperidino)pyrimidine], the “Pest controlling value (%)” value was 75%.

The test system of a further assay is Bemisia tabaci imagoes. As to the kind of experiment: Test Example 1: cabbage leaf disc immersion test on Bemisia tabaci imagoes, controlling value after 4 days. The assay is classed as in vivo. As to conditions: foliar, 96 h, compound I alone 400 ppm, cabbage leaf disc immersed 30 seconds.
The compound `COC(=O)NNC(=O)c1cc(C#N)cc(C)c1NC(=O)c1cc(Br)nn1-c1ncccc1Cl` [compound I-(117)] registered a pest or weed control at 400 ppm of 86%.

For the compound `COC(=O)NNC(=O)c1cc(Cl)cc(Br)c1NC(=O)c1cc(Br)nn1-c1ncccc1Cl` [compound I-(70)], the pest or weed control at 400 ppm came out at 90%.

On to `COC(=O)NNC(=O)c1cc(Cl)cc(C)c1NC(=O)c1cc(Br)nn1-c1ncccc1Cl` [compound I-(34)], for which the pest or weed control at 400 ppm was found to be 100%.

In turn, `COC(=O)N(C)NC(=O)c1cc(Br)cc(Br)c1NC(=O)c1cc(Br)nn1-c1ncccc1Cl` [compound I-(213)] gave a pest or weed control at 400 ppm of 100%.

`COC(=O)N(C)N(C)C(=O)c1cc(Br)cc(Br)c1NC(=O)c1cc(Br)nn1-c1ncccc1Cl` [compound I-(204)] registered a pest or weed control at 400 ppm of 100%.

Compound `COC(=O)N(C)N(C)C(=O)c1cc(Cl)cc(C)c1NC(=O)c1cc(Br)nn1-c1ncccc1Cl` [compound I-(119)] yielded a pest or weed control at 400 ppm of 100%.

Compound `COC(=O)NN(C)C(=O)c1cc(Cl)cc(C)c1NC(=O)c1cc(Br)nn1-c1ncccc1Cl` [compound I-(115)] showed a pest or weed control at 400 ppm of 51%.

`COC(=O)NNC(=O)c1cc(Br)cc(Br)c1NC(=O)c1cc(Br)nn1-c1ncccc1Cl` [compound I-(68)] yielded a pest or weed control at 400 ppm of 95%.

In turn, `COC(=O)NNC(=O)c1cc(Br)cc(C)c1NC(=O)c1cc(C(F)(F)F)nn1-c1ncccc1Cl` [compound I-(74)] came in with a pest or weed control at 400 ppm of 100%.

In turn, `COC(=O)NNC(=O)c1cc(Cl)cc(C)c1NC(=O)c1cc(C(F)(F)F)nn1-c1ncccc1Cl` [compound I-(5)] came in with a pest or weed control at 400 ppm of 100%.

The same assay, now with this note: foliar, 96 h, compound X alone 1000 ppm, cabbage leaf disc immersed 30 seconds.
In the case of `CC#CCOc1ncnc(N2CC(C)CC(C)C2)c1F` (stereo not shown) [compound X, 4-(2-butynyloxy)-5-fluoro-6-(3,5-dimethylpiperidino)pyrimidine], the pest or weed control at 1000 ppm amounted to 23%.
